Source: patent publication US10705093B2, “Determination of small-molecule thiols and disulfides: protein bound cys and total cysteine as biomarkers of oxidative stress” (Bloodworks, priority 2014, dated 2020)

Columns and labels:
[1] = tested on: Protein-ss-Cys in plasma from a normal donor; assay: Protein-ss-Cys in plasma treated with two physiologically relevant oxidants; parameters: species or system human; conditions: 37° C. for 30 min, with increasing oxidant concentration
Protocol: A. Cys containing species in normal donors' plasma (n=6); B. Plasma from a nomal donor treated with hydrogen peroxide (H2O2) and hypochlorous acid (HOCl), two oxidants commonly released from activated cells and neutrophils of patients with oxidative stress. Plasma was reaction with the indicated concentration at 37° C. for 30 min and followed by methanol extraction and analysis by LC-MS/MS-MRM as described in Example 1.

[2] = tested on: NAC, Cys species and GSH in plasma/whole blood/RBC; assay: Time course of NAC, Cys containing species and GSH in plasma/whole blood from a patient with SCD before and after NAC treatment
[3] = tested on: Cys disulfides in plasma; assay: Cys and Cys disulfide changes in plasma from a patient with SCD before and after NAC infusion (LC-MS/MS-MRM)
[4] = after NAC infusion for 1 hr at 150 mg/kg vs baseline

OCl [HOCl, hypochlorous acid]
Change of Protein-ss-Cys in plasma exposed to oxidant [1]: increased

CC(=O)N[C@@H](CS)C(=O)O [NAC, N-Acetyl Cysteine]
NAC level in plasma ([2]; 24 hr time point): almost not detectable | Increase of GSH level ([2]; 24 hr time point compared to before treatment): 13% | Increase of free Cys in the red blood cell (RBC) fraction ([2]; RBC fraction, after NAC infusion vs before): over 10 fold | Free Cys in the red blood cell (RBC) fraction after NAC ([2]; RBC fraction, after NAC infusion, before 2.3 μM): 31 µM | Change of free Cys in plasma ([2]; after NAC infusion vs Pre): greatly increased | Change of p-ss-Cys ([2]; after NAC infusion vs Pre): decreased sharply | Change of total small molecular weight thiol (st-Cys) ([2]; after NAC infusion vs Pre): greatly increased | NAC half time ([2]; inferred from the 24 hr level): short | Fraction of NAC oxidized ([2]; plasma, at 1 hr (right after NAC infusion)): over 50% | Free Cys in whole blood after NAC ([2]; whole blood, after NAC infusion, before 13 μM): 170 µM | NAC-ss-Cys mixed disulfide in plasma ([3]; after NAC infusion for 1 hr at 150 mg/kg): Detection of NAC-ss-Cys | Change of Cystine in plasma [3, 4]: large decrease | Change of Protein-ss-Cys in plasma [3, 4]: large decrease | Change of total Cys in plasma [3, 4]: no significant changes | Free Cys in plasma after NAC infusion ([3]; after NAC infusion for 1 hr at 150 mg/kg, baseline 7 μM): over 170 μM

OO [H2O2, hydrogen peroxide]
Change of Protein-ss-Cys in plasma exposed to oxidant [1]: increased
